The test system of one data set is C57BL/6 mice. Particulars: morphine intraperitoneal 30 min prior to formalin injection.
A further data set deals with 293HGLVP/CrePr cells. The data set can be described thus: RU486-induced CrePr activation of transfected IL-1β^XAT. The data set is classed as cell-based, human. As for the experimental part:
Neurobiol Aging 23:977-84] and the expression of IL-1β and lacZ was evaluated following RU486 (10^-7M) administration.
Mol Ther 8: 790-95]. […] Please refer to FIG. 3 for summary of the experiment.

Data set [1] relates to primary rat endothelial cell cultures. The data set can be described thus: Regulation of inflammation-related genes by IL-1β with or without indomethacin in endothelial cells. In kind it is cell-based. As for the experimental part: The effects of IL-1β were evaluated in vitro utilizing primary rat endothelial cell cultures as a representative rodent cell type. In this experiment, murine IL-1β (10 ng/mL) was administered exogenously to cultured primary cells, and subsequently examined the regulation of several inflammation-related genes at the transcript level over the course of 72 hours. These molecules include (A) the inducible isoform of cyclooxygenase (COX-2), intercellular adhesion molecule-1 (ICAM-1) and monocyte chemoattractant protein-1 (MCP-1), as well as (B) the […]. Panel (C) depicts enzyme activity levels of MMP-2 and MMP-9 as evaluated by zymography.
The regulation of pro-collagen IV was also included in the study as control (not an inflammatory gene)—Panel B.
Mol Ther 8: 790-95], rat endothelial cells were employed as a representative rodent model to investigate the effects of IL-1β on the regulation of ICAM-1, MCP-1, MMP-2 and MMP-9 at the transcriptional level (mRNA) as well as the enzyme activity level (zymography).
Non-steroidal anti-inflammatory drugs (NSAIDS) are inhibitors of cyclooxygenase, a rate-limiting enzyme in the production of prostaglandins. Indomethacin, a prototype NSAID often employed in laboratory studies as well as in the hospital setting, has been evaluated for the potential to modulate the inflammatory response elicited by pro-inflammatory cytokines, such as IL-1β. To this end, rodent cells were utilized as a model to study the interaction between IL-1β, and indomethacin in vitro [Kyrkanides S, et al. (2000).

For the next data set, the system named is adult mice. As to the kind of experiment: IL-1β injection into the cisterna magna: CGRP and GFAP IHC. In kind it is in vivo, mouse. The following applies: 10 ng in 2 μl into cisterna magna. On the procedure:
FIG. 51 whose IL-1β injection into the cisterna magna induces neuronal excitation and astrocyte activation. Recombinant IL-1β was injected into the cisterna magna of adult mice (10 ng in 2 μl of aqueous solution). Neuronal excitation was evaluated by CGRP and astrocyte activation by GFAP IHC. (A) The saline-injected mouse is characterized by lack of CGRP expression at the main sensory nucleus. […] GFAP immunohistochemistry in (C) control and (D) experimental mice.

[2] abbreviates: INDO + IL-1β simultaneously vs IL-1β alone (FIG. 7).
The mark [3] stands for this setting: murine IL-1β 10 ng/mL, over 72 hours (FIG. 6).
[4] abbreviates: recombinant IL-1β alone (FIG. 7).

Entries after “also recorded” stand apart in the source; their conditions may differ.

Consider `CN1CC[C@]23c4c5ccc(O)c4O[C@H]2[C@@H](O)C=C[C@H]3[C@H]1C5` [morphine], for which the “orofacial grooming in formalin-challenged mice” value in the data set with C57BL/6 mice was “normalized; also recorded: attenuation of orofacial grooming in formalin-challenged mice to near normal levels”.

`CC#C[C@]1(O)CC[C@H]2[C@@H]3CCC4=CC(=O)CCC4=C3[C@@H](c3ccc(N(C)C)cc3)C[C@@]21C` [RU486, mifepristone]: the “IL-1β and lacZ mRNA (RT-PCR)” value in the data set on 293HGLVP/CrePr cells (RU486 10^-7M, IL-1β^XAT transiently transfected) is on record as “up-regulation”. For the same molecule, the “secreted IL-1β protein in supernatant media (ELISA for human IL-1β)” value in the data set with 293HGLVP/CrePr cells (RU486-treated cells) is “significantly higher levels”. For the same molecule, in the data set with 293HGLVP/CrePr cells (RU486 administration following IL-1β^XAT transfection), the “IL-1β^XAT DNA recombination” value was “DNA excisional recombination”. The “number of X-gal positive cells (β-galactosidase reporter)” value in the data set with 293HGLVP/CrePr cells (RU486 in culture media vs naïve cells) is “significant increase”.

For `COc1ccc2c(c1)c(CC(=O)O)c(C)n2C(=O)c1ccc(Cl)cc1` [indomethacin], in data set [1] (setting [2]), the “ICAM-1, MCP-1 and MMP-9 transcript levels” value is reported as “further increased”; the “collagenase activity of MMP-2 and MMP-9” value was “further increased”. The “expression of inflammatory mediators induced by IL-1β” value in data set [1] (indomethacin with IL-1β, rodent cells in vitro (FIG. 7)) is given as “further exacerbated”.

B1: IL-1β: recombinant IL-1β cytokine administered exogenously to cells or injected into the cisterna magna (protein, UniProt P10749 118-269, looked up)
Interleukin-1 beta: VPIRQLHYRLRDEQQKSLVLSDPYELKALHLNGQNINQQVIFSMSFVQGEPSNDKIPVALGLKGKNLYLSCVMKDGTPTLQLESVDPKQYPKKKMEKRFVFNKIEVKSKVEFESAEFPNWYISTSQAEHKPVFLGNNSGQDIIDFTMESVSS
Take B1: in data set [1] (setting [3]), the “MMP-2 enzyme activity (zymography)” value was “increased with time”; the “mRNA levels of MMP-2” value is listed as “not altered”; the “synthesis of COX-2, MCP-1, ICAM-1 and MMP-9 (mRNA)” value is “upregulated”. For the same molecule, in data set [1] (setting [4]), the “enzyme activity of MMP-2 and MMP-9 (zymography)” value was “upregulated”; the “transcriptional expression of ICAM-1, MCP-1 and MMP-9 (RT-PCR)” value was “induced”. In the data set with adult mice, the “astrocyte activation (GFAP IHC) in brain stem” value was “activation of astrocytes”. Further, in the data set on adult mice (vs saline), the “CGRP expression at main sensory nucleus (neuronal excitation)” value is listed as “pronounced CGRP immunoreactivity”.

For the origin of these results see patent US20090217396A1, “Inflammation models in neurodegenerative and arthritic disorders” (priority 2004, published 2009).
